Assay results: the supplement of paper PMC10307832

How the values were obtained:
Test in all cases: relative viability (nuclei count vs DMSO), 5 days (fraction); higher = more cells survive
Dasatinib + Vorinostat = compound: Cc1nc(Nc2ncc(C(=O)Nc3c(C)cccc3Cl)s2)cc(N2CCN(CCO)CC2)n1 [Dasatinib] + O=C(CCCCCCC(=O)Nc1ccccc1)NO [Vorinostat] (partner 1 µM)
How it was run: (§1)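 Values are medians from duplicate plates. Each reflects relative viability, defined as the nuclei count of treated wells over that of vehicle wells. Lung cancer cell lines in 1536-well plates were pin-tool dosed one day after seeding with one drug alone or with a fixed anchor-drug dose plus five library-drug doses (not always all listed) in √10 steps, then fixed, stained and imaged at 4× after 5 days.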

XMD13-2 + Luminespib = compound: C1CC1C(=O)NC2=NNC3=C2C=CC(=C3)C4=CC(=CC=C4)C(=O)NC5CC5 [XMD13-2] + CCNC(=O)c1noc(-c2cc(C(C)C)c(O)cc2O)c1-c1ccc(CN2CCOCC2)cc1 [Luminespib] (partner 0.01 µM)
How it was run: as §1

ALW-II-49-7 + Bortezomib = compound: Cc1ccc(C(=O)Nc2cccc(C(F)(F)F)c2)cc1Nc1cncc(C(N)=O)c1 [ALW-II-49-7] + CC(C)C[C@H](NC(=O)[C@H](Cc1ccccc1)NC(=O)c1cnccn1)B(O)O [Bortezomib] (partner 0.002 µM)
How it was run: as §1

ALW-II-49-7 + Luminespib = compound: Cc1ccc(C(=O)Nc2cccc(C(F)(F)F)c2)cc1Nc1cncc(C(N)=O)c1 [ALW-II-49-7] + CCNC(=O)c1noc(-c2cc(C(C)C)c(O)cc2O)c1-c1ccc(CN2CCOCC2)cc1 [Luminespib] (partner 0.01 µM)
How it was run: as §1

| Cell Line | relative viability (Dasatinib + Vorinostat; first compound 0.005 µM) | relative viability (Dasatinib + Vorinostat; first compound 0.01581 µM) | relative viability (Dasatinib + Vorinostat; first compound 0.05 µM) | relative viability (Dasatinib + Vorinostat; first compound 0.1581 µM) | relative viability (Dasatinib + Vorinostat; first compound 0.5 µM) | relative viability (XMD13-2 + Luminespib; first compound 0.05 µM) | relative viability (XMD13-2 + Luminespib; first compound 0.1581 µM) | relative viability (XMD13-2 + Luminespib; first compound 0.5 µM) | relative viability (XMD13-2 + Luminespib; first compound 1.581 µM) | relative viability (XMD13-2 + Luminespib; first compound 5 µM) | relative viability (ALW-II-49-7 + Bortezomib; first compound 0.08 µM) | relative viability (ALW-II-49-7 + Bortezomib; first compound 0.253 µM) | relative viability (ALW-II-49-7 + Bortezomib; first compound 0.8 µM) | relative viability (ALW-II-49-7 + Bortezomib; first compound 2.53 µM) | relative viability (ALW-II-49-7 + Bortezomib; first compound 8 µM) | relative viability (ALW-II-49-7 + Luminespib; first compound 0.08 µM) | relative viability (ALW-II-49-7 + Luminespib; first compound 0.253 µM) | relative viability (ALW-II-49-7 + Luminespib; first compound 0.8 µM) | relative viability (ALW-II-49-7 + Luminespib; first compound 2.53 µM) | relative viability (ALW-II-49-7 + Luminespib; first compound 8 µM) |
| --- | --- | --- | --- | --- | --- | --- | --- | --- | --- | --- | --- | --- | --- | --- | --- | --- | --- | --- | --- | --- |
| 201T | 0.912 | 0.723 | 0.792 | 0.649 | 0.346 | 1.03 | 1.03 | 1.11 | 1.01 | 1.12 | 1.1 | 1.13 | 1.09 | 1.08 | 1.06 | 1.06 | 0.907 | 1.07 | 0.993 | 1.09 |
| A-427 | 0.831 | 0.766 | 0.793 | 0.517 | 0.495 | 1.08 | 0.846 | 0.94 | 0.945 | 0.849 | 1.1 | 0.95 | 0.967 | 1.02 | 1.05 | 0.728 | 0.736 | 0.875 |  | 0.769 |
| ABC-1 | 1.18 | 1.17 | 0.731 | 0.787 | 0.706 | 0.477 | 0.919 | 0.611 | 0.545 | 0.325 | 0.414 | 0.34 | 0.31 | 0.318 | 0.287 | 0.472 | 0.535 | 0.718 | 0.355 | 0.496 |
| BEN | 0.577 | 0.445 | 0.417 | 0.371 | 0.368 | 0.53 | 0.437 | 0.384 | 0.246 | 0.289 | 0.851 | 0.828 | 0.789 |  | 0.875 | 0.682 | 0.458 | 0.509 | 0.521 | 0.24 |
| CAL-12T | 1.02 | 0.846 | 0.708 | 0.477 | 0.225 | 0.373 | 0.832 | 0.933 | 0.286 | 0.75 | 0.923 |  |  | 0.978 | 0.721 | 0.193 | 0.293 | 0.517 | 0.285 | 0.38 |
| COR-L23 | 0.419 | 0.342 | 0.323 | 0.237 | 0.24 | 0.883 | 0.581 | 0.592 | 0.769 | 0.607 | 1.13 | 0.784 | 0.95 | 0.866 | 1.11 | 0.651 | 0.465 | 0.521 | 0.774 | 0.808 |
| COR-L 105 | 0.891 | 0.58 | 0.683 | 0.445 | 0.363 | 0.867 | 0.852 | 0.704 | 0.749 | 0.789 | 0.802 | 0.681 | 0.826 | 0.587 | 0.767 | 0.745 | 0.646 | 0.845 | 0.72 | 0.879 |
| Calu-6 |  |  |  |  |  |  |  |  |  |  | 1.18 | 0.95 | 1.04 | 0.785 | 0.885 |  |  |  |  |  |
| ChaGo-K-1 | 0.735 | 0.737 | 0.704 | 0.565 | 0.47 | 0.585 | 0.582 | 0.603 | 0.617 | 0.476 | 0.769 | 1.23 | 1.1 | 1.18 | 0.864 | 0.529 | 0.664 | 0.544 | 0.444 | 0.438 |
| EBC-1 |  |  |  |  |  |  |  |  |  |  | 0.543 | 0.508 | 0.474 | 0.513 | 0.39 |  |  |  |  |  |
| EKVX | 0.725 | 0.642 | 0.6 | 0.355 | 0.267 | 0.978 | 0.887 | 0.982 | 0.906 | 0.738 | 1.08 | 0.919 | 0.835 | 0.424 | 1.04 | 0.679 | 0.812 | 0.825 | 0.903 | 0.803 |
| EMC-BAC-2 | 0.392 | 0.308 | 0.273 | 0.22 | 0.172 | 1.36 | 1.1 | 1.05 | 1.14 | 1.04 | 1.04 | 0.979 | 1.1 | 1.06 | 0.844 | 1.07 | 1.14 | 1.22 | 1.06 | 0.998 |
| EPLC-272H | 0.539 | 0.401 | 0.335 | 0.276 | 0.162 | 0.414 | 0.125 | 0.734 | 0.199 | 0.124 | 0.806 | 0.839 | 0.934 | 1.05 | 0.751 | 0.218 |  | 0.324 | 0.312 | 0.276 |
| H3255 | 0.826 | 0.789 | 0.777 | 0.828 | 0.37 | 0.859 | 0.947 | 0.859 | 0.62 | 0.955 | 0.974 | 0.841 | 0.933 | 0.679 | 0.625 | 1.02 | 0.851 | 0.972 | 0.876 | 0.648 |
| HARA | 0.508 | 0.474 | 0.438 | 0.272 | 0.274 | 0.995 | 0.654 | 0.779 | 0.772 | 0.707 | 1.06 | 1.17 | 0.994 | 1.22 | 1.26 | 0.465 | 0.655 | 0.545 | 0.833 | 1.17 |
| HCC-15 | 0.85 | 0.719 | 0.842 | 0.655 | 0.669 | 0.379 | 0.492 | 0.479 | 0.238 | 0.192 | 0.957 | 0.92 | 0.959 | 1.1 | 0.952 | 0.172 | 0.302 | 0.319 | 0.304 | 0.391 |
| HCC-44 | 1.26 | 1.03 | 1.32 | 1.16 | 0.867 | 1.28 | 1.12 | 1.17 | 1.06 | 1.03 | 0.84 | 0.89 | 0.885 | 0.846 | 0.889 |  | 0.987 | 1.12 | 0.333 | 1.04 |
| HCC-78 | 0.373 | 0.354 | 0.324 | 0.336 | 0.219 |  |  |  |  |  | 0.463 | 0.434 | 0.405 |  | 0.491 |  |  |  |  |  |
